Assay results reported in US20150119410A1, “BIOMARKERS OF RESPONSE TO NAE INHIBITORS” (MILLENNIUM PHARMACEUTICALS, INC., priority 2011, published 2015).

Columns and labels:
Experiment in all cases: Cell line panel 1 viability screen
Format in all cases: cell-based
[1] = system: BxPC-3; conditions: BxPC-3 (pancreas)
Experimental: (§1) To support clinical development and identify potential biomarkers of tumor sensitivity or resistance, two large cancer cell line panels (Panel 1, N=653 (McDermott et al. (2007) PNAS 104:19936-19941); Panel 2, N=240 (O'Day et al. (2010) Fourth AACR International Conference on Molecular Diagnostics in Cancer Therapeutic Development)) were treated with MLN4924 and cell viability data (IC50, EC50, and POC—Percentage of Control) were generated.
(§2) Panel 1 (McDermott et al., supra). The cell lines were exposed to three MLN4924 concentrations (20 nM, 200 nM, and 2 μM) for 72 hours. Viability, i.e., cell number, was quantified by measuring fluorescence of a cell-permeant nucleic acid stain. Mean of triplicate values for each sample were taken and compared to DMSO control to calculate percentage of control. In the results, control or no activity value is given a value of about 1, sensitivity is indicated by a value less than 1, with 0 as death of the entire cell population and resistance indicated by a value greater than 1. A continuum of viability values was obtained for each concentration, so some values were selected as cut-offs for final determination of sensitivity or resistance. For example, median POC values of less than the median value of all POC's recorded in the panel (<0.34) indicated sensitivity, values of 0.34 to 0.75 indicated borderline sensitivity, values greater than the 3rd quartile of all POC's in the panel (>0.75) insensitivity or resistance. […] Final judgment of cell line as sensitive, insensitive or resistant was determined by its viability at 2 μM.

[2] = system: 647-V; conditions: 647-V (urinary_tract)
Experimental: as §1, §2

[3] = system: ACHN; conditions: ACHN (kidney)
Experimental: as §1, §2

[4] = system: MDA-MB-468; conditions: MDA-MB-468 (breast)
Experimental: as §1, §2

[5] = system: HuCCT1; conditions: HuCCT1 (Liver)
Experimental: as §1, §2

[6] = system: NCl-H630; conditions: NCl-H630 (intestine); 2 μM MLN4924, 72 hours; DMSO control about 1
Experimental: as §1, §2

[7] = system: SK-OV-3; conditions: Homo sapiens; SK-OV-3 (ovary); 2 μM MLN4924, 72 hours; DMSO control about 1
Experimental: as §1, §2

[8] = system: HGC-27; conditions: Homo sapiens; HGC-27 (stomach); 2 μM MLN4924, 72 hours; DMSO control about 1
Experimental: as §1, §2

[9] = system: GAMG; conditions: GAMG (central nervous system)
Experimental: as §1, §2

[10] = system: UMC-11; conditions: UMC-11 (lung)
Experimental: as §1, §2

[11] = system: MDA-MB-231; conditions: MDA-MB-231 (breast)
Experimental: as §1, §2

[12] = system: SW1417; conditions: Homo sapiens; SW1417 (intestine); 2 μM MLN4924, 72 hours; DMSO control about 1
Experimental: as §1, §2

[13] = system: HCT-15; conditions: Homo sapiens; HCT-15 (intestine); 2 μM MLN4924, 72 hours; DMSO control about 1
Experimental: as §1, §2

[14] = system: COLO-678; conditions: COLO-678 (large_intestine)
Experimental: as §1, §2

[15] = system: YAPC; conditions: YAPC (pancreas)
Experimental: as §1, §2

[16] = system: SW620
Experimental: as §1, §2

[17] = system: CAPAN-1; conditions: CAPAN-1 (pancreas)
Experimental: as §1, §2

[18] = system: NCl-H1975; conditions: NCl-H1975 (lung); 2 μM MLN4924, 72 hours; DMSO control about 1
Experimental: as §1, §2

[19] = system: KYSE-150; conditions: KYSE-150 (oesophagus)
Experimental: as §1, §2

[20] = system: CAL-27; conditions: CAL-27 (upper aerodigestive tract)
Experimental: as §1, §2

[21] = system: NCI-H2405; conditions: NCI-H2405 (lung)
Experimental: as §1, §2

[22] = system: SW1573; conditions: SW1573 (lung)
Experimental: as §1, §2

[23] = system: HCC1806; conditions: HCC1806 (breast)
Experimental: as §1, §2

[24] = Homo sapiens, 2 μM MLN4924, 72 hours, DMSO control about 1

Q: With NS(=O)(=O)OC[C@@H]1C[C@@H](n2ccc3c(N[C@H]4CCc5ccccc54)ncnc32)C[C@@H]1O [MLN4924, ((1S,2S,4R)-4-{4-[(1S)-2,3-dihydro-1H-inden-1-ylamino]-7H-pyrrolo[2,3-d]pyrimidin-7-yl}-2-hydroxycyclopentyl)methyl sulphamate] as the molecule, how does the Phenotype ([1]; SMAD4 mutant) read?
A: Its Phenotype is “insensitive (values of 0.34 to 0.75 indicated borderline sensitivity)”.

Q: What about the viability at 2 µM [1, 24] of the same molecule?
A: Its viability at 2 µM is 41.9%.

Q: And the Phenotype ([2]; NF2 mutant)?
A: The Phenotype was “sensitive (median POC values of less than the median value of all POC's recorded in the panel (<0.34) indicated sensitivity)”.

Q: What about the viability at 2 µM [2, 24] of the same molecule?
A: Its viability at 2 µM is 3.8%.

Q: And the Phenotype ([3]; NF2 mutant)?
A: Its Phenotype is “sensitive (median POC values of less than the median value of all POC's recorded in the panel (<0.34) indicated sensitivity)”.

Q: What about the viability at 2 µM [3, 24] of the same molecule?
A: Its viability at 2 µM is 6.21%.

Q: What about the viability at 2 µM [4, 24] of the same molecule?
A: Its viability at 2 µM is 29.6%.

Q: And the Phenotype ([4]; SMAD4 mutant)?
A: Its Phenotype is “sensitive (median POC values of less than the median value of all POC's recorded in the panel (<0.34) indicated sensitivity)”.

Q: What about the viability at 2 µM ([5]; Homo sapiens, HuCCT-1, 2 μM MLN4924, 72 hours, DMSO control about 1) of the same molecule?
A: Its viability at 2 µM is 12.6%.

Q: What about the Phenotype ([5]; FBXW7 mutant) of the same molecule?
A: The Phenotype was “sensitive (median POC values of less than the median value of all POC's recorded in the panel (<0.34) indicated sensitivity)”.

Q: What about the viability at 2 µM [6] of the same molecule?
A: Its viability at 2 µM is 75%.

Q: What about the viability at 2 µM [7] of the same molecule?
A: Its viability at 2 µM is 39.7%.

Q: And the viability at 2 µM [8]?
A: The viability at 2 µM was 12.9%.

Q: What about the Phenotype ([9]; SMAD4 mutant) of the same molecule?
A: Its Phenotype is “sensitive (median POC values of less than the median value of all POC's recorded in the panel (<0.34) indicated sensitivity)”.

Q: And the viability at 2 µM [9, 24]?
A: The viability at 2 µM was 7.21%.

Q: What about the viability at 2 µM [10, 24] of the same molecule?
A: The viability at 2 µM was 44.7%.

Q: What about the Phenotype ([10]; SMAD4 mutant) of the same molecule?
A: Its Phenotype is “insensitive (values of 0.34 to 0.75 indicated borderline sensitivity)”.

Q: What about the viability at 2 µM [11, 24] of the same molecule?
A: Its viability at 2 µM is 52.8%.

Q: And the Phenotype ([11]; NF2 mutant)?
A: The Phenotype was “insensitive (values of 0.34 to 0.75 indicated borderline sensitivity)”.

Q: And the viability at 2 µM [12]?
A: Its viability at 2 µM is 63.7%.

Q: What about the viability at 2 µM [13] of the same molecule?
A: The viability at 2 µM was 66.5%.

Q: And the Phenotype ([14]; SMAD4 mutant)?
A: Its Phenotype is “resistant (values greater than the 3rd quartile of all POC's in the panel (>0.75) insensitivity or resistance)”.

Q: And the viability at 2 µM [14, 24]?
A: Its viability at 2 µM is 81.4%.

Q: What about the viability at 2 µM [15, 24] of the same molecule?
A: Its viability at 2 µM is 18.7%.

Q: What about the Phenotype ([15]; SMAD4 mutant) of the same molecule?
A: Its Phenotype is “sensitive (median POC values of less than the median value of all POC's recorded in the panel (<0.34) indicated sensitivity)”.

Q: What about the viability at 2 µM ([16]; Homo sapiens, SW-620, SW620 (intestine), 2 μM MLN4924, 72 hours, DMSO control about 1) of the same molecule?
A: Its viability at 2 µM is 49.3%.

Q: And the Phenotype ([16]; SW620 (large_intestine), SMAD4 mutant)?
A: Its Phenotype is “insensitive (values of 0.34 to 0.75 indicated borderline sensitivity)”.

Q: What about the Phenotype ([17]; SMAD4 mutant) of the same molecule?
A: The Phenotype was “sensitive?”.

Q: And the viability at 2 µM [17, 24]?
A: The viability at 2 µM was 14.7%.

Q: What about the viability at 2 µM [18] of the same molecule?
A: The viability at 2 µM was 30.5%.

Q: And the viability at 2 µM [19, 24]?
A: Its viability at 2 µM is 12.8%.

Q: What about the Phenotype ([19]; SMAD4 mutant) of the same molecule?
A: The Phenotype was “sensitive (median POC values of less than the median value of all POC's recorded in the panel (<0.34) indicated sensitivity)”.

Q: And the Phenotype ([20]; SMAD4 mutant)?
A: Its Phenotype is “sensitive (median POC values of less than the median value of all POC's recorded in the panel (<0.34) indicated sensitivity)”.

Q: And the viability at 2 µM [20, 24]?
A: The viability at 2 µM was 2.71%.

Q: What about the viability at 2 µM [21, 24] of the same molecule?
A: Its viability at 2 µM is 25.5%.

Q: What about the Phenotype ([21]; SMAD4 mutant) of the same molecule?
A: Its Phenotype is “sensitive (median POC values of less than the median value of all POC's recorded in the panel (<0.34) indicated sensitivity)”.

Q: What about the viability at 2 µM [22, 24] of the same molecule?
A: The viability at 2 µM was 11.1%.

Q: What about the Phenotype ([22]; NF2 and SMAD4 mutant) of the same molecule?
A: Its Phenotype is “sensitive (median POC values of less than the median value of all POC's recorded in the panel (<0.34) indicated sensitivity)”.

Q: And the Phenotype ([23]; KDM6A mutant)?
A: Its Phenotype is “sensitive (median POC values of less than the median value of all POC's recorded in the panel (<0.34) indicated sensitivity)”.

Q: What about the viability at 2 µM [23, 24] of the same molecule?
A: The viability at 2 µM was 1.16%.
